Laboratory results: patent US7368576B2, “Dipeptidyl peptidase IV inhibitors and their uses as anti-cancer agents” (Probiodrug AG, priority 2001, dated 2008)

Key:
Assay type in all cases: biochemical
[1] = target: T1, dipeptidyl peptidase IV from porcine kidney (Sus scrofa, UniProt P22411); assay: Ki determination, DPIV inhibition (glycylprolyl-4-nitroaniline); conditions: HEPES pH7.6, 30° C.
T1 construct: dipeptidyl peptidase IV from porcine kidney; from tissue; host or cells: porcine kidney

[2] = target: purified porcine DPIV (Sus scrofa, UniProt P22411); assay: Determination of IC50 values, DPIV (Gly-Pro-pNA); conditions: Gly-Pro-pNA 0.4 mM, HEPES pH7.6, 30° C.
Sequence of purified porcine DPIV (P22411 whole entry): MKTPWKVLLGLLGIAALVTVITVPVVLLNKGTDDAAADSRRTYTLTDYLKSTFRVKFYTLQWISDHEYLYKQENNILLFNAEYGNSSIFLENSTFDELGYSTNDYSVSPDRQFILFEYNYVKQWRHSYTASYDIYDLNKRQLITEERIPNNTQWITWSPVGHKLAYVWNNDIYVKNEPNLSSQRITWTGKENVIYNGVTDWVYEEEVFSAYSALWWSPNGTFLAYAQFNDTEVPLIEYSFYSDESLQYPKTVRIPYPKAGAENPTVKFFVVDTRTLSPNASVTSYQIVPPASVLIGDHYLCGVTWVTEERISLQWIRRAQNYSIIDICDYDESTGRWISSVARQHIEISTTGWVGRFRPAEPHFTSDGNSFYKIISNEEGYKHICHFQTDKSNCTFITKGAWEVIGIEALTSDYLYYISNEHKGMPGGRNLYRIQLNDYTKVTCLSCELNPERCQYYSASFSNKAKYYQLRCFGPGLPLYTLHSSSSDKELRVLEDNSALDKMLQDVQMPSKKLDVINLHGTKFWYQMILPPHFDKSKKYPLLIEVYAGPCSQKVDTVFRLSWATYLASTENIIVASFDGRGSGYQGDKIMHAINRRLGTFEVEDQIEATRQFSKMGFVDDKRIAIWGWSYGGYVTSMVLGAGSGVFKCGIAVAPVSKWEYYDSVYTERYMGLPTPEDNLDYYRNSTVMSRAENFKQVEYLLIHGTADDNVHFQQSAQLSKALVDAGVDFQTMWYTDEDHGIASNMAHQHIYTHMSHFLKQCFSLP
Procedure: 100 μl inhibitor stock solution were mixed with 100 μl buffer (HEPES pH7.6) and 50 μl substrate (Gly-Pro-pNA, final concentration 0.4 mM) and preincubated at 30° C. Reaction was started by addition of 20 μl purified porcine DPIV. Formation of the product pNA was measured at 405 nm over 10 min using the HTS 7000Plus plate reader (Perkin Elmer) and slopes were calculated. The final inhibitor concentrations ranged between 1 mM and 30 nM. For calculation of IC50 GraFit 4.0.13 (Erithacus Software) was used.

[3] = target: T2, Dipeptidyl Peptidase I (DP I, Cathepsin C) (Rattus norvegicus, UniProt P80067); assay: Cross reacting enzymes: dipeptidyl peptidase I; conditions: concentration range 1*10^−5 M-1*10^−7 M
T2 construct: purchased Qiagen GmbH, Hilden, Germany
T2 sequence (P80067 25-462): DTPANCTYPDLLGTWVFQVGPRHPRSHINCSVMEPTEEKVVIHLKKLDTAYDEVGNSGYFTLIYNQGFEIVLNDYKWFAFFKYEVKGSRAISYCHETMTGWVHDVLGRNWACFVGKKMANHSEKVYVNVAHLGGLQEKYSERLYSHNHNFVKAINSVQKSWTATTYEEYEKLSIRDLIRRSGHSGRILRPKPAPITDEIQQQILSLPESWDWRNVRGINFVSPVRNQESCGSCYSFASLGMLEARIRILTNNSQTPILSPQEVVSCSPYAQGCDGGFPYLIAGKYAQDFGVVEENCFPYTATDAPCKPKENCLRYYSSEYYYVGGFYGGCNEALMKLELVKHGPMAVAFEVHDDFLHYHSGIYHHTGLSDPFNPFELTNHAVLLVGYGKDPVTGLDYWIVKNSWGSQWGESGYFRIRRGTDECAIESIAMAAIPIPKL
Procedure: DP I or cathepsin C is a lysosomal cysteine protease which cleaves off dipeptides from the N-terminus of their substrates (Gutman, H. R. & Fruton, J. S., 1948, J. Biol: Chem., 174, 851-858). It is classified as a cysteine protease. The enzyme used was purchased from Qiagen (Qiagen GmbH, Hilden, Germany). In order to get a fully active enzyme, the enzyme was diluted 1000fold in MES buffer pH5.6 (40 mM MES, 4 mM DTT, 4 mM KCl, 2 mM EDTA, 0.015% Brij) and pre-incubated for 30 min at 30° C.
50 μl glutaminyl pyrrolidine or glutaminyl thiazolidine in a concentration range of 1*10^−5 M-1*10^−7 M were admixed with 110 μl buffer-enzyme-mixture. The assay mixture was pre-incubated at 30° C. for 15 min. After pre-incubation, 100 μl histidylseryl-β-nitroaniline (2*10^-5M) was added and measurement of yellow color development due to β-nitroaniline release was performed at 30° C. and […] for 10 min., using a plate reader (HTS7000 plus, Applied Biosystems, Weiterstadt, Germany).
The IC50-values were calculated using Graphit 4.0.15 (Erithacus Software, Ltd., UK).

[4] = target: T3, recombinant human prolyl oligopeptidase (POP) (Homo sapiens, UniProt P48147); assay: Cross reacting enzymes: prolyl oligopeptidase; conditions: concentration range 1*10^−4 M-5*10^−8 M
T3 construct: made in house; host or cells: E. coli
T3 sequence (P48147 1-710): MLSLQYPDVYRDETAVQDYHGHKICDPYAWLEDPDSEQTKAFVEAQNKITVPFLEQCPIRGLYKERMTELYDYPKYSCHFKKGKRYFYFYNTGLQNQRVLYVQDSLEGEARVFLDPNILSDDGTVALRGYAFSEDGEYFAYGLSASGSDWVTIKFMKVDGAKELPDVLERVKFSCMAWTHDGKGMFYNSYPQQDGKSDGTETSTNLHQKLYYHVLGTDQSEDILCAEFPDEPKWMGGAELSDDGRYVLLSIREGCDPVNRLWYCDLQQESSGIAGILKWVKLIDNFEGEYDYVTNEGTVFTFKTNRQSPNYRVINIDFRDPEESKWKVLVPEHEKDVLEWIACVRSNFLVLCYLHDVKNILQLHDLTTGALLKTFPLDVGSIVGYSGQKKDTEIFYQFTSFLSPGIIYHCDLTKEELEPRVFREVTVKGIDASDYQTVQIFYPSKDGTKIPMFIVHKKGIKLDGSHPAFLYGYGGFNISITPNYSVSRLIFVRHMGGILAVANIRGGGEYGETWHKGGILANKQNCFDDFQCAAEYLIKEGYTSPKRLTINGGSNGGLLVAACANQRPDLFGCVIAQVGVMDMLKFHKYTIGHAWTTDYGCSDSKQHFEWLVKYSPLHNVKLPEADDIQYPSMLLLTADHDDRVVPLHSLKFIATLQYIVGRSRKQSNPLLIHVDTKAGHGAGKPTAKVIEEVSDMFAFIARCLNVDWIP
Procedure: Substrates are peptides with a molecular weight up to 3000 Da. The enzyme used was a recombinant human prolyl oligopeptidase. Recombinant expression was performed in E. coli under standard conditions as described elsewhere in the state of the art.
100 μl glutaminyl pyrrolidine or glutaminyl thiazolidine in an concentration range of 1*10^−4 M-5*10^−8 M were admixed with 100 μl μl buffer solution (40 mM HEPES, pH7.6, 0.015% Brij, 1 mM DTT) and 20 μl POP solution. The assay mixture was pre-incubated at 30° C. for 15 min. After pre-incubation, 50 μl glycylprolylprolyl-4-nitroaniline solution (0.29 mM) was added and measurement of yellow color development due to 4-nitroaniline release was performed at 30° C. and λ=405 nm for 10 min using a plate reader (sunrise, Tecan, Crailsheim, Germany). The IC50-values were calculated using Graphit 4.0.15 (Erithacus Software, Ltd., UK).

T1 sequence (P22411 whole entry): as the sequence (P22411 whole entry) above

## NC(=O)CCC(N)C(=O)N1CCCC1 (stereo not shown) [Gln-Pyrr, glutaminyl pyrrolidine]
[1]
  Ki: 2.26 µM
[2]
  IC50: 15 µM
[3]
  inhibition of the DP I enzyme activity: No inhibition
[4]
  inhibition of POP activity: No inhibition
